This is an account of results in paper PMC10552749, “Anti-methicillin-resistant Staphylococcus aureus and antibiofilm activity of new peptides produced by a Brevibacillus strain” (PeerJ, 2023).

≈ marks a conversion by molar mass, not a printed value. Where “and” joins values, the source holds several entries; their conditions need not be identical. Equal values may be shown once. Where no end group is shown, it is not given here.

One data set has as its system human erythrocytes. It is filed as cell-based. As to the method: The Ethics Committee in Human Research at Walailak University has approved this study (WUEC-22-242-01; 15 August 2022). The written consent was obtained from a subject involved in the research. Whole blood (5 mL) was collected from a human volunteer and centrifuged at 700× g for 8 min. The pellets were washed 3 times with PBS before diluting to obtain 0.5% erythrocyte suspension. A total of 50 µL of erythrocytes was added to a 96-well plate, and the purified peptide in PBS (50 μL) was mixed to achieve the final peptide concentration of 1, 2, 4, 8, 16, 32, 64, 128, 256, and 512 µg/mL. The mixtures were then incubated at 37 °C for 1 h. They were further centrifuged at 1,000× g for 10 min, and the supernatant was loaded into a microplate before measuring the absorbance at 540 nm. The positive and negative controls were 1% Triton X-100 and untreated samples, respectively, while PBS was used as a blank control. This assay was carried out in three independent experiments. The percent hemolysis was calculated by the following equation:
%Hemolysis=[Asam−Ablank]/[Apos−Ablank]×100 where Asam is the sample absorbance, Apos and Ablank are the absorbance of positive and blank controls, respectively ([Oddo & Hansen, 2017]).

The conditions of data set [1]: ref Baczek, Walijewski & Kaliszan, 2008, cited from earlier work.
The test system of data set [2] is S. aureus TISTR 517 and MRSA isolate 2468. Put plainly: Biofilm eradication assay, statements for both tested bacteria. The data set is classed as cell-based, Staphylococcus aureus. Here is the method:
(§1) The bacteria were standardized to achieve 1 × 10^8 CFU/mL, and 100 µL of cell suspension was transferred to a 96-well microplate. The plates were incubated at 37 °C for 48 h for biofilm formation. The free bacteria cells were removed from the plates by washing them with PBS. Peptide solutions at the concentrations (0.5–256 µg/mL) were added to the microplate and incubated at 37 °C for 24 h. Subsequently, PBS was used to rewash the plate, and 100 µL of PBS was loaded into each well. The plate was sonicated for 30 min at room temperature, and the samples were taken and made a ten-fold serial dilution. A total of 10 µL of the diluted samples was plated on MH agar for colony count. Vancomycin and untreated samples were used as the positive and negative controls. Only SCD media without bacteria was used as the blank ([Yuan et al., 2019]). The significant difference was evaluated by one-way ANOVA (p-value < 0.05) compared to untreated controls.

In data set [3] the test system is S. aureus TISTR 517 and MRSA isolate 142, 1096, and 2468. Put plainly: microbe, parasite or virus in culture. The data set is classed as cell-based, Staphylococcus aureus. Here is the method:
(§2) The assay was conducted in accordance with the guideline of the Clinical and Laboratory Standard Institute (CLSI). […] The cell suspension was prepared in a 20-fold dilution using Cation-Adjusted Mueller-Hinton broth (CAHMB) as a diluent. A total of 10 µL of the diluted bacterial preparation and 100 µL of pure substances (0.25–64 µg/mL) were loaded into the 96-well plates. The plates were incubated at 37 °C for 24 h. Control wells were performed for broth (CAMHB) and inoculum. Vancomycin was tested as a control drug. The experiment was performed in triplicate for each tested strain.

Data set [4] concerns MRSA isolate 2468. Put plainly: Inhibition of biofilm formation (crystal violet). The data set is classed as cell-based, Staphylococcus aureus. As to the method:
(§3) The cells were standardized using the same medium to achieve 1 × 10^8 CFU/mL. The cell suspension was mixed with peptide at various concentrations (0.5–256 µg/mL) in a 96-well plate. The plates were then incubated at 37 °C for 48 h. Then, the planktonic bacteria cells were removed from the plates by washing them with PBS. Thereafter, 100 µL of methanol was added to the plate to fix the biofilm-associated cells. The plates were dried and stained with 0.1% crystal violet for 15 min before rinsing twice with PBS. A total of 100 μL of […] was finally added to resolubilize the stained crystal violet. The plates were incubated at 37 °C for 30 min, and the supernatants were transferred to a new 96-well plate. The absorbance at 570 nm was measured by a microplate reader (Thermo Fisher Scientific Inc., Waltham, MA, USA) to determine the biofilm formation. […] One-way ANOVA was used to analyze the significant differences among treated samples compared to the untreated controls at various p-values.

The test system of data set [5] is MRSA isolate 2468. Briefly: microbe, parasite or virus in culture. It is filed as cell-based. The following applies: Staphylococcus aureus, 24 h. Here is the method: as §2
Data set [6] concerns MRSA isolate 1096. Briefly: microbe, parasite or virus in culture. The data set is classed as cell-based. The following applies: Staphylococcus aureus, 24 h. Here is the method:
as §2

The test system of data set [7] is MRSA isolate 142. Briefly: microbe, parasite or virus in culture. It is filed as cell-based. The following applies: Staphylococcus aureus, 24 h. As to the method: as §2
The subject of data set [8] is S. aureus TISTR 517. Put plainly: microbe, parasite or virus in culture. The data set is classed as cell-based. The following applies: Staphylococcus aureus, TISTR517, 24 h. As to the method:
as §2

Data set [9] has as its system MRSA isolate 2468. Briefly: microbe, parasite or virus in culture. It is filed as cell-based, Staphylococcus aureus. As to the method: (§4) Wells of 9 mm were punched on the solid media surface by a sterile tip, and 100 µL of purified substance was loaded before incubating the plates at 37 °C for 24 h. […] The result was collected from three independent experiments in which the diameter of the zone of inhibition was measured by a vernier caliper and reported as mean ± SD ([Lei et al., 2020]). The significant difference was determined by Student’s t-test at a p-value of less than 0.05.

Data set [10] concerns MRSA isolate 1096. Briefly: microbe, parasite or virus in culture. The data set is classed as cell-based, Staphylococcus aureus. Here is the method: as §4
Data set [11] deals with MRSA isolate 142. Briefly: microbe, parasite or virus in culture. It is filed as cell-based, Staphylococcus aureus. Here is the method: as §4
Data set [12] has as its system S. aureus TISTR 517. Put plainly: microbe, parasite or virus in culture. The data set is classed as cell-based, Staphylococcus aureus. As to the method:
as §4

Data set [13] deals with MRSA isolate 2468. Put plainly: Biofilm eradication assay. It is filed as cell-based, Staphylococcus aureus. The following applies: vs untreated, p-value < 0.05. Here is the method:
as §1

Data set [14] concerns S. aureus and MRSA biofilms. Conditions: statically grown biofilms of S. aureus and MRSA; ref Zapotoczna et al., 2017; cited from earlier work. An excerpt:
Biofilm is an important virulence mechanism in many bacterial pathogens. The cells irreversibly adhere to the biotic and abiotic surfaces and are surrounded by an extracellular matrix in response to stress conditions ([Flemming & Wuertz, 2019]). […] S. aureus and MRSA develop a biofilm to decrease or prevent the diffusion of antimicrobial drugs into the cells, resulting in more drug r ...

Data set [15] relates to S. aureus TISTR 517. Briefly: Inhibition of biofilm formation (crystal violet). The data set is classed as cell-based. Conditions: Staphylococcus aureus, TISTR517, 48 h, read-out: IC50 of biofilm formation. Here is the method:
as §3

Where [16] appears, read: Staphylococcus aureus, read-out: Inhibition zone.
Setting [17] is: Vancomycin (30 μg), mean ± SD, n = 3.

Take MFLVVKVLKYVV [BrSPR19-P2]: the “Therapeutic index (TI) of hemolysis / hemolysis index threshold” value with human erythrocytes is recorded as 32.
For the compound “DAEFGHDSG-NH2 [literature model peptide for RPC retention]”, the RPC retention time in [1] (isocratic elution by 0.1% TFA and ACN) was 3.75 min. Moreover, the pI in data set [1] was 4.02.
On to `CN[C@H](CC(C)C)C(=O)N[C@H]1C(=O)N[C@@H](CC(N)=O)C(=O)N[C@H]2C(=O)N[C@H]3C(=O)N[C@H](C(=O)N[C@H](C(=O)O)c4cc(O)cc(O)c4-c4cc3ccc4O)[C@H](O)c3ccc(c(Cl)c3)Oc3cc2cc(c3O[C@@H]2O[C@H](CO)[C@@H](O)[C@H](O)[C@H]2O[C@H]2C[C@](C)(N)[C@H](O)[C@H](C)O2)Oc2ccc(cc2Cl)[C@H]1O` [Vancomycin], for which the “Concentration to destroy mature biofilms as multiple of MIC” value in data set [2] (128 μg/mL relative to MIC) stood at 64 × MIC. Moreover, the “Concentration that completely eradicated biofilm (killed persistent cells)” value in data set [2] (48 h preformed biofilms, 24 h treatment, both bacteria) is 128 µg/mL. The MBC (in data set [3] (Staphylococcus aureus); in data set [3] (against all tested bacteria); in the data set with MRSA isolate 2468 [5]; in the data set with MRSA isolate 1096 [6]; against MRSA isolate 142 [7]; with S. aureus TISTR 517 [8]) was 2 µg/mL (≈ 1.38 µM) in each case. The MIC in data set [3] (Staphylococcus aureus) is 2 µg/mL and 1.38 µM; in data set [3] (against all tested bacteria), 2 µg/mL (≈ 1.38 µM); against MRSA isolate 2468 [5], 2 µg/mL (≈ 1.38 µM); against MRSA isolate 1096 [6] it was 2 µg/mL (≈ 1.38 µM); in the data set on MRSA isolate 142 [7] it was 2 µg/mL (≈ 1.38 µM); in the data set on S. aureus TISTR 517 [8], 2 µg/mL (≈ 1.38 µM). Moreover, the “Biofilm formation (% of untreated) after treatment” value in the data set on MRSA isolate 2468 [4] (4 μg/mL or 2× MIC, 37 °C 48 h, crystal violet, A570, mean ± SD of three experiments) is listed as 68.25 ± 4.21%. For the same compound, the IC50 with MRSA isolate 2468 [4] (Staphylococcus aureus, 48 h, read-out: IC50 of biofilm formation) is 5.91 µg/mL (≈ 4.08 µM); in the data set on S. aureus TISTR 517 [15], 4.84 µg/mL (≈ 3.34 µM). Also, the zone of inhibition at 30 µg/disc stood at 23.9 ± 0.1 mm in the data set with MRSA isolate 2468 [9] (setting [16]); 23.1 ± 0.36 mm with MRSA isolate 1096 [10] (setting [16]); 23.5 ± 0.59 mm in the data set on MRSA isolate 142 [11] (setting [16]); 20.7 ± 0.23 mm in the data set with S. aureus TISTR 517 [12] (Staphylococcus aureus, TISTR517, read-out: Inhibition zone). Further, the Inhibition zone is given as 23.90 mm with MRSA isolate 2468 [9] (setting [17]), 23.10 mm in the data set with MRSA isolate 1096 [10] (setting [17]), 23.47 mm with MRSA isolate 142 [11] (setting [17]) and 20.73 mm in the data set on S. aureus TISTR 517 [12] (setting [17]). In addition, the “Concentration that significantly reduced persistent cells in biofilm” value in the data set on MRSA isolate 2468 [13] is recorded as 64 µg/mL. For the same compound, the “Concentration for half-maximal inhibition of biofilms” value in data set [14] is 16.0 to 68.2 µg/mL.

In general, IC50 refers to the point on the concentration scale where inhibition reaches its midpoint.
